Measured values published in patent US9856279B2 (AGIOS PHARMACEUTICALS, INC, priority 2011, dated 2018).

Legend:
IDH1 R132H = IDH1 R132H (Homo sapiens, UniProt O75874, R132H); assay: Assay for IDH1 R132H inhibitors (NADPH/aKG, resazurin detection); assay type: biochemical; conditions: enzyme assay of Example 12; read-out: IDH1R132H IC50
In short: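 Read-out is resorufin fluorescence (Ex544/Em590) 5 min after adding a 30 μM resazurin detection mix. Before that, mutant enzyme (0.2 μg/ml in its mix) ran 50 min at room temperature with compound, 8 uM NADPH and 2 mM aKG (mix levels) in Tris pH 7.5 with NaCl, MgCl2, BSA.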

HT1080 cells = assay: Cellular assay for IDH1m inhibitors: inhibition of 2-HG production (LC-MS, 48 hours) in HT1080 cells; assay type: cell-based; conditions: Homo sapiens, HT-1080; inhibition of 2-HG production, HT1080 cells; read-out: HT1080 IC50
In short: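 Cells were seeded at 5000/well in DMEM with 10% FBS, incubated overnight, then treated with compound (0.2% DMSO final) for 48 h at 37° C. Medium 2-HG was quantified by LC-MS. IC50 is the concentration reducing 2-HG by 50% versus DMSO control, and CellTiter-Glo viability was read at 72 h.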

U87MG cells = assay: Cellular assay for IDH1m inhibitors: inhibition of 2-HG production (LC-MS, 48 hours) in U87MG cells; assay type: cell-based; conditions: Homo sapiens, U-87 MG, inhibition of 2-HG production, U87R132H cells; read-out: U87R132H IC50
Experimental: Cells (e.g., HT1080 or U87MG) and are grown in T125 flasks in DMEM containing 10% FBS, 1× penicillin/streptomycin and 500 ug/mL G418. They are harvested by trypsin and seeded into 96 well white bottom plates at a density of 5000 cell/well in 100 ul/well in DMEM with 10% FBS. No cells are plates in columns 1 and 12. Cells are incubated overnight at 37° C. in 5% CO2. The next day compounds are made up at 2× concentration and 100 ul are added to each cell well. The final concentration of DMSO is 0.2% and the DMSO control wells are plated in row G. The plates are then placed in the incubator for 48 hours. At 48 hours, 100 μl of media is removed from each well and analyzed by LC-MS for 2-HG concentrations. The cell plate is placed back in the incubator for another 24 hours. At 72 hours post compound addition, 10 mL/plate of Promega Cell Titer Glo reagent is thawed and mixed. The cell plate is removed from the incubator and allowed to equilibrate to room temperature. Then 100 ul of reagent is added to each well of media. The cell plate is then placed on an orbital shaker for 10 minutes and then allowed to sit at room temperature for 20 minutes. The plate is then read for luminescence with an integration time of 500 ms.
The IC50 for inhibition of 2-HG production (concentration of test compound to reduce 2HG production by 50% compared to control) in these two cell lines for various compounds of formula I is set forth in Table 4 above.

Sequence of IDH1 R132H (O75874 whole entry R132H): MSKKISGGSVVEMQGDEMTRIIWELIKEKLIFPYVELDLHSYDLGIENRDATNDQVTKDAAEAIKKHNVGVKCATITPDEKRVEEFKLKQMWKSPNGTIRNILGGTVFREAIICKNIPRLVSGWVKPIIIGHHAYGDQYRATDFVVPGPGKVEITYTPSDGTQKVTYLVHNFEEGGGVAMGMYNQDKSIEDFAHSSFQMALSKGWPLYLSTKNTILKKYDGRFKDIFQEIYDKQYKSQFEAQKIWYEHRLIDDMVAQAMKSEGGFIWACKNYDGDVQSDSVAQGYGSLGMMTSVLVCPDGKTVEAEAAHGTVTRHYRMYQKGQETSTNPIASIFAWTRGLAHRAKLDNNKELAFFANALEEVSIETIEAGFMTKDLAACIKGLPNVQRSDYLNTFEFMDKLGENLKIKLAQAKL

| Structure (SMILES) | IC50 (IDH1 R132H) [µM] | IC50 (HT1080 cells) [µM] | IC50 (U87MG cells) [µM] |
| --- | --- | --- | --- |
| COCCC(=O)N1CCN(c2nc(C3CC3)c(-c3ccccc3OC)cc2C#N)C[C@H]1C(C)C [Compound 275, (R)-6-cyclopropyl-2-(3-isopropyl-4-(3-methoxypropanoyl)piperazin-1-yl)-5-(2-methoxyphenyl)nicotinonitrile] | < 0.5 | 1 to 10 | 1 to 10 |
| COCCC(=O)N1CCN(c2nc(C3CC3)c(-c3ccccc3OC(F)(F)F)cc2C#N)C[C@H]1C(C)C [Compound 276, (R)-6-cyclopropyl-2-(3-isopropyl-4-(3-methoxypropanoyl)piperazin-1-yl)-5-(2-(trifluoromethoxy)phenyl)nicotinonitrile] | < 0.5 | 1 to 10 | 1 to 10 |
| COCCC(=O)N1CCN(c2nc(C3CC3)c(OC(C)c3ccccc3)cc2C#N)C[C@H]1C (stereo partly drawn) [Compound 277, 6-cyclopropyl-2-((R)-4-(3-methoxypropanoyl)-3-methylpiperazin-1-yl)-5-(1-phenylethoxy)nicotinonitrile] | < 0.5 | 1 to 10 | 1 to 10 |
| COCCC(=O)N1CCN(c2nc(C3CC3)c(-c3ccc4cc(OC)ccc4c3)c(C)c2C#N)C[C@H]1C [Compound 278, (R)-6-cyclopropyl-5-(6-methoxynaphthalen-2-yl)-2-(4-(3-methoxypropanoyl)-3-methylpiperazin-1-yl)-4-methylnicotinonitrile] | 0.5 to 1 | 1 to 10 | 1 to 10 |
| COCCC(=O)N1CCN(c2nc(C3CC3)c(OCc3ccccn3)cc2C#N)C[C@H]1C [Compound 279, (R)-6-cyclopropyl-2-(4-(3-methoxypropanoyl)-3-methylpiperazin-1-yl)-5-(pyridin-2-ylmethoxy)nicotinonitrile] | 0.5 to 1 | 1 to 10 | 1 to 10 |
| COCCC(=O)N1CCN(c2nc(C3CC3)c(OCc3cccc(OC)c3)cc2C#N)C[C@H]1C [Compound 280, (R)-6-cyclopropyl-5-(3-methoxybenzyloxy)-2-(4-(3-methoxypropanoyl)-3-methylpiperazin-1-yl)nicotinonitrile] | < 0.5 | 1 to 10 | 1 to 10 |
| COCCC(=O)N1CCN(c2nc(C3CC3)c(-c3cccc(C#N)c3)cc2C#N)C[C@H]1C [Compound 283, (R)-5-(3-cyanophenyl)-6-cyclopropyl-2-(4-(3-methoxypropanoyl)-3-methylpiperazin-1-yl)nicotinonitrile] | < 0.5 | 0.5 to 1 | 1 to 10 |
| COCCC(=O)N1CCN(c2nc(C3CC3)c(-c3cccc(N)c3)cc2C#N)C[C@H]1C [Compound 285, (R)-5-(3-aminophenyl)-6-cyclopropyl-2-(4-(3-methoxypropanoyl)-3-methylpiperazin-1-yl)nicotinonitrile] | < 0.5 | 0.5 to 1 | 1 to 10 |
| COCCC(=O)N1CCN(c2nc(C3CC3)c(-c3cccc4cnccc34)cc2C#N)C[C@H]1C [Compound 286, (R)-6-cyclopropyl-5-(isoquinolin-5-yl)-2-(4-(3-methoxypropanoyl)-3-methylpiperazin-1-yl)nicotinonitrile] | < 0.5 | < 0.5 | < 0.5 |
| COCCC(=O)N1CCN(c2nc(C3CC3)c(-c3cccc4[nH]ccc34)cc2C#N)C[C@H]1C [Compound 287, (R)-6-cyclopropyl-5-(1H-indol-4-yl)-2-(4-(3-methoxypropanoyl)-3-methylpiperazin-1-yl)nicotinonitrile] | < 0.5 | 1 to 10 | 1 to 10 |
| COCCC(=O)N1CCN(c2nc(C3CC3)c(-c3cccc4ncccc34)cc2C#N)C[C@H]1C [Compound 288, (R)-6-cyclopropyl-2-(4-(3-methoxypropanoyl)-3-methylpiperazin-1-yl)-5-(quinolin-5-yl)nicotinonitrile] | < 0.5 | < 0.5 | < 0.5 |
